Here are results for 2 compounds from PMC11833736 (ACS Pharmacology & Translational Science, 2025).

The subject of one series is U-87MG cells. Briefly: Cell fractioning (FractionPREP kit), Ru content by ICP-MS. In kind it is in vitro ADME. To be noted: 10 μM, 24 h. How it is done: Ru content in different compartments was determined via a FractionPREP Cell Fractionation Kit (Abcam, Cambridge, U.K., no 288085). U-87MG cells were seeded in 25 cm^2 OptiMEM medium (1.5 × 10^6 cells) for 24 h. […] Untreated cells served as control. After 24 h of incubation, the cells were collected, counted, and fractioned according to the manufacturer’s procedure. In short, the cells were collected and centrifuged at 700g for 5 min. The cells were then washed with ice-cold PBS (1 mL) followed by 5 min centrifuging at 700g, and the supernatant was removed. The cell pellet was resuspended in 1 mL of ice-cold PBS, transferred into a 1.5 mL Eppendorf tube, and spun for 5 min at 700g, and the supernatant was removed. The pellet was resuspended in 400 μL of Extraction Buffer III/Cytosol Extraction Buffer Mix [containing 2 μL of dithiothreitol (DTT) and 2 μL of protease inhibitor cocktail per mL]. The cells were mixed well by carefully pipetting up and down (ca. 5 times). The sample was incubated on ice for 20 min with gentle tapping three to four times every 5 min. Afterward, the sample was centrifuged at 700g for 10 min. The supernatant was collected (cytosolic fraction) and kept on ice. The resulting pellet was again resuspended in 400 μL of ice-cold Extraction Buffer IV/Membrane Extraction Buffer-A Mix (containing 2 μL of DTT and 2 μL of protease inhibitor cocktail per mL) and pipetted several times, and the sample was vortexed for 10–15 s to mix well. Then, 22 μL of Lysis Buffer/Membrane Extraction Buffer-B was added and vortexed for 5 s. The samples were incubated for 1 min on ice. Afterward, the sample was vortexed again for 5 s and centrifuged for 5 min at 1000g. The supernatant was immediately transferred to a clean, prechilled 1.5 mL tube and kept on ice (membrane fraction). The pellet was again resuspended in 200 μL of ice-cold Extraction Buffer V/Nuclear Extraction Buffer mix (containing 2 μL of DTT and 2 μL of protease inhibitor cocktail per mL), vortexed for 15 s, and kept on ice for 40 min with constant vortex for 15 s every 10 min. The sample was then microcentrifuged at top speed for 10 min. The resulting supernatant was transferred in a clean, prechilled 1.5 mL tube (nuclear fraction) and kept on ice. The remaining cytoskeletal fraction was dissolved in 100 μL of 0.2% SDS containing 10 mM DTT solution. All samples were digested over 65% HNO3 (0.5 mL) in an oven hot oven (90 °C). The solution was diluted with Milli-Q water to 10 mL, and the Ru content [ppb] was measured by ICP-MS.

The next series has as its target AChE (Electrophorus electricus, UniProt O42275). To be noted: for PI: AChE, IC50 dark / IC50 green light; for IC50: read-out: IC50,D, isolated AChE, 30 min in the dark, read 35 min after DTNB addition. The text has this:
Among all enzymes involved in transmembrane signaling, another important one is AChE. In a modified procedure (for further details, see the Experimental Section), we checked whether the ruthenium complexes were able to inhibit AChE in the dark and after light activation. The colorimetric assay used Ellman’s reagent. […] The conversion of 5,5′-dithiobis(2-nitrobenzoic acid) (DTNB) to yellow 2-nitro-5-thiobenzoate (TNB) initiated by the addition of acetylthiocholine was then detected by UV–vis spectroscopy every 5 min for a total time of […]. […] The solution was further diluted 1:50 in 50 mM Tris buffer, pH = 8 (10 μL in 490 μL), and then placed in 4.5 mL of 50 mM Tris buffer, pH = 8. […] 50 μL of the enzyme and 50 μL of the complex solution were added to a 96-well plate in triplicates. […] Meanwhile, a 10 mM solution of acetylthiocholine iodide and 10 mM DTNB was prepared. After the respective time, in each well, 5 μL of the acetylthiocholine iodide and DTNB mixture was added. The absorbance was read at a microplate Tecan reader at 410 nm every 5 min for in total 40 min.

Several values for one entry are separate records, joined by “and”; a condition that tells them apart may be missing. Equal entries are not always repeated. A value given as a limit tells only on which side of the number the result lay.

Chain of AChE (O42275 24-633): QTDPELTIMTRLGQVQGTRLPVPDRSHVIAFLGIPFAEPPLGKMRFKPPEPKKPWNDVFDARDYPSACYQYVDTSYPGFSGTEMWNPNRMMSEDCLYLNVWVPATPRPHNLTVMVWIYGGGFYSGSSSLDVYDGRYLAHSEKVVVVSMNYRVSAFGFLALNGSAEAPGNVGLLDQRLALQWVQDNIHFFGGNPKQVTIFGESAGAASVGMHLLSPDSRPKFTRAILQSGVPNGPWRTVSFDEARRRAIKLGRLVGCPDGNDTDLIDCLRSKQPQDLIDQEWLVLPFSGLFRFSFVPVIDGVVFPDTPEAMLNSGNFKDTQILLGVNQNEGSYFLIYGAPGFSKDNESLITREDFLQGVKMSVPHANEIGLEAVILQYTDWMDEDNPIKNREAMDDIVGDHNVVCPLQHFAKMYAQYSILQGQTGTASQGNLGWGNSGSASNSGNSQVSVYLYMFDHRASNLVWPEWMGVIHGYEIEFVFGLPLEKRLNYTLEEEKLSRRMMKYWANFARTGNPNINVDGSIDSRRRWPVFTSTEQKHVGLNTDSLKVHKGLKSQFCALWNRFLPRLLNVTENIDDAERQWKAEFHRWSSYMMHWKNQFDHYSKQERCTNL

For `CSCCO.F[P-](F)(F)(F)(F)F.F[P-](F)(F)(F)(F)F.[Ru+2].c1ccc(-c2cccc(-c3ccccn3)n2)nc1.c1ccc2cc(-c3cc4ccccc4cn3)ncc2c1` [[2](PF6)2], in the series with U-87MG cells, the “Ru content, Cytosol” value was 0.18 ng Ru/mio. cells and 0.18 ± 0.06 ng Ru/mio. cells; the “Ru content, Membrane” value is 0.83 ng Ru/mio. cells and 0.83± 0.57 ng Ru/mio. cells; the “Ru content, Nucleus” value came out at 0.03 ± 0.03 ng Ru/mio. cells. On AChE, the PI is above 1.5 and the IC50 – broadly, the midpoint of a concentration-inhibition curve – was above 15 µM.
Turning to `CSCCO.F[P-](F)(F)(F)(F)F.F[P-](F)(F)(F)(F)F.[Ru+2].c1ccc(-c2cccc(-c3ccccn3)n2)nc1.c1ccc2cc(Nc3cc4ccccc4cn3)ncc2c1` [[3](PF6)2], in the series on U-87MG cells, the “Ru content, Cytosol” value is given as 0.07 ± 0.05 ng Ru/mio. cells; the “Ru content, Membrane” value was 0.88 ng Ru/mio. cells and 0.88 ± 0.25 ng Ru/mio. cells; the “Ru content, Nucleus” value is 0.17 ng Ru/mio. cells and 0.17 ± 0.06 ng Ru/mio. cells. Moreover, on AChE, the PI stood at 2 and the IC50 was found to be 9.6 µM.
